Data from PMC4721142, “Randomized controlled studies on the efficacy of antiarthritic agents in inhibiting cartilage degeneration and pain associated with progression of osteoarthritis in the rat” (Arthritis Research & Therapy, 2016).
Marks after values point to notes of the source that are not given here.

Key:
MIA rat model of OA [1] = assay: MIA trial 2 digital Randall-Selitto test (daily tacrolimus 0.3 or 0.6 mg/kg i.p., curcumin 50 mg/kg p.o., fluocinolone 0.01 mg/kg s.c.; weekly clonidine 0.1 mg/kg s.c.); assay type: in vivo
Method: (§1) The digital Randall-Selitto (dRS) test is said to be a reliable and repeatable measure of neuropathic, bone, and inflammatory pain behavior in several different models, including those of arthritic or joint pain [29, 31, 32]. Baseline and posttreatment values were evaluated using a dRS test device (IITC Life Science, Woodland Hills, CA, USA). Animals were allowed to acclimate to the testing room before all experimentation and for a minimum of 30 minutes before testing. To ensure that their hind limbs were accessible, the animals were gently suspended in a restraint sling. The joint compression threshold was measured once at each time point for the ipsilateral and contralateral knee joints. Pressure was applied gradually over approximately 10 seconds to the medial and lateral aspects of the knee joint. Measurements were taken from the first observed behavior of vocalization, struggle, or withdrawal. A cutoff value of 600 g was used to prevent injury to the animal.
(§2) Following isoflurane anesthesia, 50 μl (2 mg) of MIA was injected into the synovial space of the left knee. Animals were randomly assigned to groups, and pain behavior was assessed 7, 14, 21, and 28 days following MIA injection and intervention using WB with the Stoelting incapacitance meter (trial 1) or the dRS test (trials 2 and 3). […] Animals received MIA treatment and then saline control or therapeutic. […] Histopathology was performed at each time point and at study termination. All studies were conducted in accordance with the International Association for the Study of Pain Guidelines and were approved by the Algos Therapeutics, Inc. Institutional Animal Care and Use Committee (IACUC) before initiation. Those running the studies were blind to the treatments. See Additional file 1 for further details.

MIA rat model of OA [2] = assay: MIA trial 3 digital Randall-Selitto test (weekly i.a. clonidine 4.5 μg, tacrolimus 30 ng, fluocinolone 15 ng, meloxicam 100 μg, tranilast 500 ng, TH 150 μg; clonidine 100 μg/kg s.c.); assay type: in vivo
Method: as §1
as §2, with “details. […]” for “details.”
struggle or withdrawal. A cut-off value of 600 g was used to prevent injury to the animal. The mean and standard error of the mean (SEM) were determined for each treatment group.
Statistical significance was assigned as p ≤ 0.05. The stability of the vehicle group over time was assessed on each testing day (Days 7, 14, 21, and 28) using repeated measures one-way analysis of variance (ANOVA) comparing joint compression thresholds at each experimental time point on a given testing day versus that testing day’s pre-treatment value. Osteoarthritis-related pain in the vehicle group was estimated at each time point on each testing day by comparing ipsilateral (injured) to contralateral (normal) joint compression thresholds using paired t-tests. The progression of osteoarthritis-related pain in the vehicle group was estimated by comparing pre-treatment joint compression thresholds on each testing day versus pre-MIA measurements using repeated measures one-way ANOVA. […]
thresholds at each experimental time point on a given testing day with vehicle treated animals using an unpaired t-test. The acute effect of Tacrolimus was analyzed by comparing joint compression thresholds at each time point on a given testing day with the corresponding pre-treatment baseline values using repeated measures one-way ANOVA and compared to vehicle treated animals using […]
values using repeated measures one-way ANOVA. Chronic effects were analyzed by comparing pre-treatment joint compression thresholds on each testing day versus the appropriate Day 7 pre-treatment values using repeated measures one-way ANOVA and by comparing pre-treatment joint compression thresholds with vehicle treated animals on each testing day using an unpaired t-test or one-way ANOVA. Day 7 pre-treatment joint compression thresholds between all groups were assessed using one-way ANOVA. The Dunnett’s multiple comparison post hoc test was used when […]
dosing were housed three per cage. Animals had free access to food and water and were maintained […]
The animal colony was maintained at approximately 21 °C. All experiments were conducted in accordance with the International Association for the Study of Pain Guidelines.

[3] = day 21, tacrolimus 0.3 mg/kg, other drugs single dose

Clc1cccc(Cl)c1N=C1NCCN1 [Clonidine]
dRS, hours after dosing with significant difference (MIA rat model of OA [1]; [3]): 3 h
dRS, hours after dosing with significant difference (MIA rat model of OA [2]; day 7): 1 h

C=CC[C@@H]1/C=C(\C)C[C@H](C)C[C@H](OC)[C@H]2O[C@@](O)(C(=O)C(=O)N3CCCC[C@H]3C(=O)O[C@H](/C(C)=C/[C@@H]3CC[C@@H](O)[C@H](OC)C3)[C@H](C)[C@@H](O)CC1=O)[C@H](C)C[C@@H]2OC [Tacrolimus]
dRS, hours after dosing with significant difference (MIA rat model of OA [1]; [3]): Pretrt^d
dRS, hours after dosing with significant difference (MIA rat model of OA [1]; day 21, tacrolimus 0.6 mg/kg i.p.): 1 h

CC(C)(C)CC(=O)OCC(=O)[C@@]12OC(C)(C)O[C@@H]1C[C@H]1[C@@H]3CCC4=CC(=O)C=C[C@]4(C)[C@@]3(F)[C@@H](O)C[C@@]12C [Triamcinolone hexacetonide]
dRS, hours after dosing with significant difference (MIA rat model of OA [2]; day 7): 3 h
dRS, hours after dosing with significant difference (MIA rat model of OA [2]; day 14): 1 h
dRS, hours after dosing with significant difference (MIA rat model of OA [2]; day 21): Pretrt^f
dRS, hours after dosing with significant difference (MIA rat model of OA [2]; day 28, negative = worse): -24 h

COc1cc(/C=C/C(=O)CC(=O)/C=C/c2ccc(O)c(OC)c2)ccc1O [Curcumin, Diferuloylmethane]
dRS, hours after dosing with significant difference (MIA rat model of OA [1]; day 7, tacrolimus 0.3 mg/kg, other drugs single dose): 1 h
dRS, hours after dosing with significant difference (MIA rat model of OA [1]; [3]): Pretrt^d

COc1ccc(C=CC(=O)Nc2ccccc2C(=O)O)cc1OC [Tranilast, N-(3′,4′-dimethoxycinnamoyl)anthranilic acid]
dRS, hours after dosing with significant difference (MIA rat model of OA [2]; day 14): 1 h
dRS, hours after dosing with significant difference (MIA rat model of OA [2]; day 21): 1 h

CC1(C)O[C@@H]2C[C@H]3[C@@H]4C[C@H](F)C5=CC(=O)C=C[C@]5(C)[C@@]4(F)[C@@H](O)C[C@]3(C)[C@]2(C(=O)CO)O1 [Fluocinolone, Fluocinolone Acetonide]
dRS, hours after dosing with significant difference (MIA rat model of OA [1]; day 14, tacrolimus 0.3 mg/kg, other drugs single dose): 5^e h
dRS, hours after dosing with significant difference (MIA rat model of OA [2]; day 7): 1 h
dRS, hours after dosing with significant difference (MIA rat model of OA [2]; day 28, negative = worse): -24 h
